System: Liver microsome
Assay: Drug metabolism in human liver microsomes assessed as oxidative metabolite formation at 10 uM by LC-MS analysis in presence of NADPH
Assay type: ADME

For Cc1onc(-c2ccccc2)c1NC(=O)NCc1ccc(Cl)cc1Cl, the Drug metabolism was “metabolite_detected”.
